Experiment [1] deals with middle cerebral artery ischemia model of rat. Description: Infarction inhibiting action in middle cerebral artery ischemia (MCAo-recirculation) model of rat. It counts as in vivo. The following applies: ip, 24 h, 3 mg/kg i.p. 10 minutes before occlusion and 1 hour after recirculation, infarction volume one day after, vs control group, read-out: Rate of inhibition of infarction. An excerpt: It is also known that, in this way, in the acute stage of cerebral infarction, the lesion proceeds to the peripheral tissue from the core of infarction, and death of the nerve cells is extended with the passage of several days. This possible not only extends and creates grave aftereffects, and causes loss of motor and mental function, but also finally critically influences on the life. As an in vivo experimental model of cerebral infarction which is capable of precisely evaluating the clinical effect of a medicine in conformity with clinical conditions of the disease of a patient of cerebral infarction, the middle cerebral artery occlusion (MCAo)-recirculation model comprising an embolus with a yarn using Wister rates may be used [Document: Japan Journal of Stroke, vol. 8, 1 (1986)]. […] This action was evaluated by applying the MCAo model by the method which will be described below.
In rats of 10 weeks old, after etherization, a median incision of the cervical region was made up to the right carotid artery bifurcation under 1.0% halothane anesthetization with care to preserve the vagus nerves. The common carotid artery and the external carotid artery were separated from the periphery connective tissue with the right carotid artery bifurcation as the center, and each of the arteries was ligated by a 6-0 silk yarn (Eto yarn). Further, a yarn was wound on the internal carotid artery origin in preparation for ligation and fixing after insertion of the embolus. Next, the common carotid artery was incised, and the embolus was inserted from the common carotid artery to the internal carotid artery by about 15 to 16 mm, and ligated and fixed to the internal carotid artery by the silk yarn at the end thereof near the nylon yarn. In this operation, the end of the embolus was inserted into the anterior cerebral artery by about 1 to 2 mm beyond the middle cerebral artery bifurcation, and the inlet of the middle cerebral artery was occluded by the body (resin part) of the embolus for 1 hours. In recirculation, the embolus with a yarn was removed to recirculate the blood flow to the middle cerebral artery. 3 mg/kg of each of test compounds was intraperitoneally administered 10 minutes before occlusion and 1 hour after recirculation of the blood flow. One day after occlusion and recirculation, the whole body was perfused with physiologic saline through the heart, and the brain was extracted. The extracted brain was cooled with ice and water for 5 minutes, and cut at intervals of 2.0 mm to form 7 sections of the cerebral coronal surface. Each of the sections was stained with TTC (Triphenyltetrazolium Chloride), and fixed by a 5% neutral buffer formalin solution. In each of the sections, the infarction area in the right cerebral hemisphere was measured by an image analyzer (Olympus), and the infarction was evaluated by volume (mm^3). The infarction volume was compared with the infarction volume of a control group to calculate the rate of inhibition of infarction.

The subject of experiment [2] is cultured nerve cells. Description: Action of protecting cultured nerve cells from glutamic acid toxicity (LDH leakage). The class given is cell-based, Wistar rat. The following applies: rat fetal cerebral cortex cells, 10 mM glutamic acid, 24 hours, read-out: ED50 (the source's name). From the text:
It is known that when the blood flow to the brain is temporarily clogged due to cerebral ischemia, hypoxia, or an trauma, delayed cerebral neuronal death is induced [Document: Brain Research, Vol. 239, 57 (1982)]. A possible cause of such damage of the cerebral nerve cells is excitatory toxicity due to an excitatory neutotransmitter such as glutamic acid or the like, which is excessively released with ischemia [Document: Trends in Neuroscience, vol. 10, 299 (1987)]. […] This is a problem to be solved by the invention. This action was evaluated by using the in vitro evaluation system which will be described below.
A fetus was taken from the abdomen of a Wistar female rat on the 18 to 19th day of pregnancy under aseptic conditions, and the head of the fetus was opened to extract the brain. The brain was placed in an ice-cooled L-15 medium, and the cerebral cortex was separated under a microscope. The cerebral cortexes of about 30 rats were cut into pieces, and then suspended in 10 ml of a 0.25% trypsin solution and 0.2 ml of a 0.01% DNase solution, followed by culture at 37° C. for 30 minutes. Then, 2 ml of serum was added to the solution, and immediately the resultant mixture was centrifuged at 120 rpm for 2 minutes to separate the precipitates. To the precipitates was added 7 ml of a DF medium (a medium obtained by adding 20 nM of transferrin, 5 μg/ml of insulin, 20 nM of progesterone,60 nM of selenite, 50 U/ml of penicillin, and 50 U/ml of streptomycin to a mixture equivalent amounts of Dulbecco modified Eagle medium and F-12 medium), followed by 20 pipetting operations using a 10-ml plastic pipette to obtain a cell suspension. The cell suspension was filtered with nylon mesh (pore diameter 43 μm) to fractionate isolated cells. The thus-obtained isolated cells were diluted with a DF medium to a concentration of 6.0×10^5 cells/ml, and 500 μl of the diluted cells was inoculated in each of the 48 wells of a 48-well culture plate precoated with polylysine, followed by culture at 37° C. for 1 day in the presence of 5% of CO2. On the 2nd day, the medium was changed to a new DF medium, and 10 μl of a solution of 0.5M glutamic acid in distilled water was added to each of the wells (the final glutamic acid concentration was 10 mM), followed by further culture at 37° C. for 24 hours in the presence 5% of CO2. A test compound was dissolved in distilled water, 10% or 100% DMSO or 10% methanol, and 5 μl of the solution was added to each of the wells immediately before glutamic acid was added. As an index of nerve cell damage, the enzyme activity of lactic acid dehydrogenase (LDH) leaking from the damaged cells into the medium was measured. For each of the test compounds, the LDH leakage was measured at each of concentrations to determine a dose-response curve by the modified Cochran-Armitige method. The 50% effective dose (ED50) of each of the test compounds we determined from the curve.

`COc1ccc2c3c1O[C@H]1c4[nH]c5c(ccc6ccccc65)c4C[C@@]4(O)[C@@H](C2)N(CC2CC2)CC[C@]314` [Compound 17, 17-cyclopropylmethyl-3-methoxy-14β-hydroxy-6,7-dehydro-4,5α-epoxy-6,7,2',3'-(6',7'-benzoindolo)morphinan]: the inhibition in vivo at 3 mg/kg in experiment [1] came to 56%. Besides, the EC50 in experiment [2] was found to be 120 nM.
With `Oc1ccc2c3c1O[C@H]1c4c(c5cc6c7c(cccc7c5n4Cc4ccccc4)-c4ccccc4-6)C[C@@]4(O)[C@@H](C2)N(CC2CC2)CC[C@]314` [Compound 79, 17-cyclopropylmethyl-3,14β-dihydroxy-6,7-dehydro-4,5α-epoxy-6,7,2',3'-(1'-benzyl-5',6"-benzeno-6',7'-benzoindolo)morphinan], the inhibition in vivo at 3 mg/kg in experiment [1] stood at 26%. Further, the EC50 in experiment [2] came out at 190 nM.
Regarding `Oc1ccc2c3c1O[C@H]1c4c(c5ccc6ccccc6c5n4Cc4ccc(F)cc4)C[C@@]4(O)[C@@H](C2)N(CC2CC2)CC[C@]314` [Compound 70], the inhibition in vivo at 3 mg/kg in experiment [1] was determined as 34%. Moreover, the EC50 in experiment [2] worked out at 15 nM.
As to `O=C(NCCCn1c2c(c3ccccc31)C[C@@]1(O)[C@H]3Cc4ccc(O)c5c4[C@@]1(CCN3CC1CC1)[C@H]2O5)c1ccccc1` [Compound 61, 17-cyclopropylmethyl-3,14β-dihydroxy-6,7-dehydro-4,5α-epoxy-6,7,2',3'-[1'-(3-benzamidopropyl)indolo]morphinan], the inhibition in vivo at 3 mg/kg in experiment [1] came to 29%. For the same compound, the EC50 in experiment [2] turned out to be 140 nM.
As for `NCCCn1c2c(c3ccc4ccccc4c31)C[C@@]1(O)[C@H]3Cc4ccc(O)c5c4[C@@]1(CCN3CC1CC1)[C@H]2O5` [Compound 25, 17-cyclopropylmethyl-3,14β-dihydroxy-6,7-dehydro-4,5α-epoxy-6,7,2',3'-[1'-(3-aminopropyl)-6',7'-benzoindolo]morphinan], the inhibition in vivo at 3 mg/kg in experiment [1] amounted to 15%. Also, the EC50 in experiment [2] was determined as 300 nM.
With `Oc1ccc2c3c1O[C@H]1c4[nH]c5cc(C6CCCCC6)ccc5c4C[C@@]4(O)[C@@H](C2)N(CC2CC2)CC[C@]314` [Compound 5, 17-cyclopropylmethyl-3,14β-dihydroxy-6,7-dehydro-4,5α-epoxy-6,7,2',3'-(6'-cyclohexylindolo)morphinan], the inhibition in vivo at 3 mg/kg in experiment [1] was determined as 31%. In addition, in experiment [2], the EC50 turned out to be 120 nM.
On to `Oc1ccc2c3c1O[C@H]1c4c(c5ccc6ccccc6c5n4CCc4ccccc4)C[C@@]4(O)[C@@H](C2)N(CC2CC2)CC[C@]314` [Compound 80, 17-cyclopropylmethyl-3,14β-dihydroxy-6,7-dehydro-4,5α-epoxy-6,7,2',3'-[1'-(2-phenylethyl)-6',7'-benzoindolo]morphinan], for which the inhibition in vivo at 3 mg/kg in experiment [1] amounted to 29%. Besides, the EC50 in experiment [2] stood at 37 nM.
The matching figures for `Oc1ccc2c3c1O[C@H]1c4c(c5ccc6ccccc6c5n4Cc4ccccc4)C[C@@]4(O)[C@@H](C2)N(CC2CC2)CC[C@]314` [Compound 69, 17-cyclopropylmethyl-3,14β-dihydroxy-6,7-dehydro-4,5α-epoxy-6,7,2',3'-(1'-benzyl-6',7'-benzoindolo)morphinan]: 69% and 9.3 nM.
Turning to `CN1CC[C@]23c4c5ccc(O)c4O[C@H]2c2[nH]c4c(ccc6ccccc64)c2C[C@@]3(O)[C@H]1C5` [Compound 74, 17-methyl-3,14β-dihydroxy-6,7-dehydro-4,5α-epoxy-6,7,2',3'-(6',7'-benzoindolo)morphinan], the inhibition in vivo at 3 mg/kg in experiment [1] was 27%.
In the case of `O=C(NCCCn1c2c(c3ccc4ccccc4c31)C[C@@]1(O)[C@H]3Cc4ccc(O)c5c4[C@@]1(CCN3CC1CC1)[C@H]2O5)c1cccnc1` [Compound 66, 17-cyclopropylmethyl-3,14β-dihydroxy-6,7-dehydro-4,5α-epoxy-6,7,2',3'-[1'-(3-nicotinamidopropyl)-6',7'-benzoindolo]morphinan], the inhibition in vivo at 3 mg/kg in experiment [1] turned out to be 25%. For the same compound, in experiment [2], the EC50 was 400 nM.
Take `Oc1ccc2c3c1O[C@H]1c4[nH]c5c(ccc6ccccc65)c4C[C@@]4(O)[C@@H](C2)N(CC2CCC2)CC[C@]314` [Compound 76, 17-cyclobutylmethyl-3,14β-dihydroxy-6,7-dehydro-4,5α-epoxy-6,7,2',3'-(6',7'-benzoindolo)morphinan]: the inhibition in vivo at 3 mg/kg in experiment [1] was found to be 65%.
For the compound `Oc1ccc2c3c1O[C@H]1c4[nH]c5c(cc6c7c(cccc75)-c5ccccc5-6)c4C[C@@]4(O)[C@@H](C2)N(CC2CC2)CC[C@]314` [Compound 19, 17-cyclopropylmethyl-3,14β-dihydroxy-6,7-dehydro-4,5α-epoxy-6,7,2',3'-(5',6"-benzeno-6',7'-benzoindolo)morphinan], in experiment [1], the inhibition in vivo at 3 mg/kg was determined as 29%. The EC50 in experiment [2] worked out at 200 nM.
Take `Oc1ccc2c3c1O[C@H]1c4[nH]c5c(ccc6ccccc65)c4C[C@@]4(O)[C@@H](C2)N(CCc2ccccc2)CC[C@]314` [Compound 75, 17-(2-phenylethyl)-3,14β-dihydroxy-6,7-dehydro-4,5α-epoxy-6,7,2',3'-(6',7'-benzoindolo)morphinan]: the inhibition in vivo at 3 mg/kg in experiment [1] amounted to 30%.
For `Oc1ccc2c3c1O[C@H]1c4[nH]c5c6ccccc6c6ccccc6c5c4C[C@@]4(O)[C@@H](C2)N(CC2CC2)CC[C@]314` [Compound 23, 17-cyclopropylmethyl-3,14β-dihydroxy-6,7-dehydro-4,5α-epoxy-6,7,2',3'-(4',5',6',7'-debenzoindolo)morphinan], the inhibition in vivo at 3 mg/kg in experiment [1] was 79%.
Turning to `Oc1ccc2c3c1O[C@H]1c4[nH]c5ccccc5c4C[C@@]4(O)[C@@H](C2)N(CC2CC2)CC[C@]314` [Compound 1, 17-cyclopropylmethyl-3,14β-dihydroxy-6,7-dehydro-4,5α-epoxy-6,7,2',3'-indolomorphinan], in experiment [1], the inhibition in vivo at 3 mg/kg turned out to be 23%.
On the same count and under the same terms, with `O=C(CCCCCc1ccccc1)NCCCn1c2c(c3ccccc31)C[C@@]1(O)[C@H]3Cc4ccc(O)c5c4[C@@]1(CCN3CC1CC1)[C@H]2O5` [Compound 62, 17-cyclopropylmethyl-3,14β-dihydroxy-6,7-dehydro-4,5α-epoxy-6,7,2',3'-[1'-[3-(6-phenylhexanoamido)propyl]indolo]morphinan] the figure was 10%.
As for `Oc1ccc2c3c1O[C@H]1c4[nH]c5c(ccc6ccccc65)c4C[C@@]4(O)[C@@H](C2)NCC[C@]314` [Compound 73, 3, 14β-dihydroxy-6,7-dehydro-4,5α-epoxy-6,7,2',3'-(6',7'-benzoindolo)morphinan], in experiment [1], the inhibition in vivo at 3 mg/kg came to 34%.

Source of the values: patent US6156762A, “Indolomorphinan derivative and agent for curing and preventing cerebral disorder” (Toray Industries, Inc., priority 1997, dated 2000).
